Laboratory results published in patent US11117892B2, “Pyrrolo-pyridine derivative compound, method for preparing same, and pharmaceutical composition containing same as active ingredient for prevention or treatment of protein kinase-related diseases” (DAEGU-GYEONGBUK MEDICAL INNOVATION FOUNDATION, priority 2017, dated 2021).

Tests used:
Test in all cases: scanMAX Kinase assay panel
Assay type in all cases: binding
Conditions in all cases: read-out: % control
AAK1 = AAK1 (Homo sapiens (Human), UniProt Q2M2I8)
How it was run: (§1)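 Selectivity was measured on the scanMAX platform. The compound signal minus the positive-control signal was divided by the DMSO-minus-positive-control window and multiplied by 100.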

ACVR1B = ACVR1B (Homo sapiens (Human), UniProt P36896)
Chain of ACVR1B (P36896 24-505): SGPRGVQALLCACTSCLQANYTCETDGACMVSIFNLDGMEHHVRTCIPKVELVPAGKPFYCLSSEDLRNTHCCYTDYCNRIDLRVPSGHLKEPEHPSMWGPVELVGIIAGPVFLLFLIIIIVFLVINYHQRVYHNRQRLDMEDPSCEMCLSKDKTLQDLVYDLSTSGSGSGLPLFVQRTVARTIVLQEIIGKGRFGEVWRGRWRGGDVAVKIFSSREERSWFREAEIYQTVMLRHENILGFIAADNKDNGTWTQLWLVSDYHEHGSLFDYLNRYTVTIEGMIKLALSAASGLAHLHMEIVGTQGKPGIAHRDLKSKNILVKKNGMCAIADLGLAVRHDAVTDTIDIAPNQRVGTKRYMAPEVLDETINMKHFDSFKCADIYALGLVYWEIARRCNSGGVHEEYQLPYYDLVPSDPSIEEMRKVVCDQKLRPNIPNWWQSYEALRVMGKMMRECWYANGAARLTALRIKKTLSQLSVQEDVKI
How it was run: as §1

AKT3 = AKT3 (Homo sapiens (Human), UniProt Q9Y243)
Chain of AKT3 (Q9Y243 whole entry): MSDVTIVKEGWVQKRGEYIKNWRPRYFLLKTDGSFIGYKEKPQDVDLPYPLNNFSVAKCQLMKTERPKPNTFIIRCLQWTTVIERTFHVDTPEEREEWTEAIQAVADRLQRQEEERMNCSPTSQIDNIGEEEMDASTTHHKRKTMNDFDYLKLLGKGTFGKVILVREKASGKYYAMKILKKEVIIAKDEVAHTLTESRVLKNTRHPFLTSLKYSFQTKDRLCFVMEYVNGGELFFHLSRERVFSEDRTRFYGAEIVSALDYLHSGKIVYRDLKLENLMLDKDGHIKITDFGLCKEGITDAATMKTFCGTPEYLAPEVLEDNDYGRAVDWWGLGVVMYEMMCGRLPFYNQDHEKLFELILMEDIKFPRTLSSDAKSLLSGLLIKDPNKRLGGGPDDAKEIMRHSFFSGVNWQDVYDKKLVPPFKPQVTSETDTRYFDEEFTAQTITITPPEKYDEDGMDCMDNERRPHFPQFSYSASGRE
How it was run: as §1

CAMK2A = CAMK2A (Homo sapiens (Human), UniProt Q9UQM7)
Chain of CAMK2A (Q9UQM7 whole entry): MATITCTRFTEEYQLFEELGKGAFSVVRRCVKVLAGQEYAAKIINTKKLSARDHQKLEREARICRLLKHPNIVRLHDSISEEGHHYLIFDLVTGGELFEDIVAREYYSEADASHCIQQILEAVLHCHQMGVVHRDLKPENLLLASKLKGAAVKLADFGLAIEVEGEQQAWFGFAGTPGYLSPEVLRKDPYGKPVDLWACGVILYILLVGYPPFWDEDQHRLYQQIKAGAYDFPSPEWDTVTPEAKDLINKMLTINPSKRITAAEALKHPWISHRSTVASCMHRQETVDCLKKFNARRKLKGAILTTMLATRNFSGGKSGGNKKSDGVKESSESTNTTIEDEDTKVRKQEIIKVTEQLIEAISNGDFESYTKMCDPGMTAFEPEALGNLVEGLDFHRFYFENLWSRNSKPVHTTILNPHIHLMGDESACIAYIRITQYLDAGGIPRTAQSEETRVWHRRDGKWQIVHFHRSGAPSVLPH
How it was run: as §1

CAMK2G = CAMK2G (Homo sapiens (Human), UniProt Q13555)
How it was run: as §1

CDC2L1 = CDC2L1 (Homo sapiens (Human), UniProt P21127)
How it was run: as §1

CDK2 = CDK2 (Homo sapiens (Human), UniProt P24941)
How it was run: as §1

CSK = CSK (Homo sapiens (Human), UniProt P41240)
How it was run: as §1

EGFR(L858R, T790M) = EGFR(L858R, T790M) (Homo sapiens (Human), UniProt P00533, L858R/T790M)
How it was run: as §1

EPHA2 = EPHA2 (Homo sapiens (Human), UniProt P29317)
How it was run: as §1

EPHA5 = EPHA5 (Homo sapiens (Human), UniProt P54756)
Chain of EPHA5 (P54756 25-1037): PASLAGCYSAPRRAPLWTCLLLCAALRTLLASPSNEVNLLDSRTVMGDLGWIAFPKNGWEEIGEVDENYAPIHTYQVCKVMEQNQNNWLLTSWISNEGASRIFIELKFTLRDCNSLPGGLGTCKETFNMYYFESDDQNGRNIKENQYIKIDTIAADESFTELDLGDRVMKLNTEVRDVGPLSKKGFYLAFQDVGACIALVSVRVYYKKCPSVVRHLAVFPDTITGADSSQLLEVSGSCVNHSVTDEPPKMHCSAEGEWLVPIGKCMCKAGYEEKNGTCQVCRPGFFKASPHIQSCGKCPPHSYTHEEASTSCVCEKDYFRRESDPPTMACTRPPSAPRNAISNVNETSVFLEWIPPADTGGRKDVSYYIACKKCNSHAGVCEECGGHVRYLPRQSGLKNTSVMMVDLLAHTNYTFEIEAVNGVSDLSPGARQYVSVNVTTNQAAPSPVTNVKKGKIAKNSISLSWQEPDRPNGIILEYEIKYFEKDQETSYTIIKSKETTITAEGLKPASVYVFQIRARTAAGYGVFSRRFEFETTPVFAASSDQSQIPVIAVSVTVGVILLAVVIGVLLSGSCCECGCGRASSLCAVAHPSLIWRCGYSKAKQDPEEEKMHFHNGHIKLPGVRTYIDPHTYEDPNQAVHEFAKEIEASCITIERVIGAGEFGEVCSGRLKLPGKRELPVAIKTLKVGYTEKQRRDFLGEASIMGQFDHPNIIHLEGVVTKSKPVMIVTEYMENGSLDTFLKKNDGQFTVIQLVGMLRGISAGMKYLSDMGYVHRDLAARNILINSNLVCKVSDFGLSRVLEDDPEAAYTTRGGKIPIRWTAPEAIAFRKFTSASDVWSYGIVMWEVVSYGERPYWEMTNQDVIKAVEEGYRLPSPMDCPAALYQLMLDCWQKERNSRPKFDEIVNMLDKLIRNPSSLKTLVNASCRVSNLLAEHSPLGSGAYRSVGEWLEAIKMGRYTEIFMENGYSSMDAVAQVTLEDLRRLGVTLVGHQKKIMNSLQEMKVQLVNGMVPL
How it was run: as §1

EPHB3 = EPHB3 (Homo sapiens (Human), UniProt P54753)
How it was run: as §1

ERBB4 = ERBB4 (Homo sapiens (Human), UniProt Q15303)
How it was run: as §1

HCK = HCK (Homo sapiens (Human), UniProt P08631)
Chain of HCK (P08631 whole entry): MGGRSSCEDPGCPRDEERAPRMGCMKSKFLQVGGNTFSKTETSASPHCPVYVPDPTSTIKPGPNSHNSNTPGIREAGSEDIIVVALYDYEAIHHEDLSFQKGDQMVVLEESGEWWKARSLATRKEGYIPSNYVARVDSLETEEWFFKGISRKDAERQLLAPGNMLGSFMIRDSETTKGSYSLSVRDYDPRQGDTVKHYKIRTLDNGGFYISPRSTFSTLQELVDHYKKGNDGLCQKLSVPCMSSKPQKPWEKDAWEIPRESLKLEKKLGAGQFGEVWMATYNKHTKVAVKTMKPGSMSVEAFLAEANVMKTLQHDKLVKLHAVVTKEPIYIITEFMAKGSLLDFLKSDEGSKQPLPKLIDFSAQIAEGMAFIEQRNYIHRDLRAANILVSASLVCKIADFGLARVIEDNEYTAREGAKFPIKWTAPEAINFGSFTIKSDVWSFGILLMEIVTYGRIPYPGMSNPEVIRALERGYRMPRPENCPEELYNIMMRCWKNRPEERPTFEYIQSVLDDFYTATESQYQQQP
How it was run: as §1

IRAK3 = IRAK3 (Homo sapiens (Human), UniProt Q9Y616)
How it was run: as §1

JNK3 = JNK3 (Homo sapiens (Human), UniProt P53779)
How it was run: as §1

KIT(V559D, V654A) = KIT(V559D, V654A) (Homo sapiens (Human), UniProt P10721, V559D/V654A)
How it was run: as §1

LKB1 = LKB1 (Homo sapiens (Human), UniProt Q15831)
How it was run: as §1

MAP3K3 = MAP3K3 (Homo sapiens (Human), UniProt Q99759)
How it was run: as §1

MAPKAPK2 = MAPKAPK2 (Homo sapiens (Human), UniProt P49137)
How it was run: as §1

MET = MET (Homo sapiens (Human), UniProt P08581)
How it was run: as §1

MET(M1250T) = MET(M1250T) (Homo sapiens (Human), UniProt P08581, M1250T)
How it was run: as §1

MINK = MINK (Homo sapiens (Human), UniProt Q8N4C8)
How it was run: as §1

MST1R = MST1R (Homo sapiens (Human), UniProt Q04912)
How it was run: as §1

MST2 = MST2 (Homo sapiens (Human), UniProt Q13188)
How it was run: as §1

NEK2 = NEK2 (Homo sapiens (Human), UniProt P51955)
Chain of NEK2 (P51955 whole entry): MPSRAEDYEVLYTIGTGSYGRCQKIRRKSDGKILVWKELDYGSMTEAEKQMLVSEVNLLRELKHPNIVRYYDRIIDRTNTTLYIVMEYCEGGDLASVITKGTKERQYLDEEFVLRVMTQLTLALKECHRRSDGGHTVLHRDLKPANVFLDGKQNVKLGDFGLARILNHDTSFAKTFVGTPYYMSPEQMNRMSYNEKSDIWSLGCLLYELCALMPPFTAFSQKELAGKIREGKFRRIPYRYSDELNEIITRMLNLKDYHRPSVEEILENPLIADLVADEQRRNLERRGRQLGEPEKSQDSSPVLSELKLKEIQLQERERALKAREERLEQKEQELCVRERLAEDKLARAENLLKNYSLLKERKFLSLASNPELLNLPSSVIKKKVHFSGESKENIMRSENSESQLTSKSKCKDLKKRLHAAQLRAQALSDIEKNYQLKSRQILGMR
How it was run: as §1

NLK = NLK (Homo sapiens (Human), UniProt Q9UBE8)
How it was run: as §1

PAK2 = PAK2 (Homo sapiens (Human), UniProt Q13177)
How it was run: as §1

PDGFRA = PDGFRA (Homo sapiens (Human), UniProt P16234)
Chain of PDGFRA (P16234 24-1089): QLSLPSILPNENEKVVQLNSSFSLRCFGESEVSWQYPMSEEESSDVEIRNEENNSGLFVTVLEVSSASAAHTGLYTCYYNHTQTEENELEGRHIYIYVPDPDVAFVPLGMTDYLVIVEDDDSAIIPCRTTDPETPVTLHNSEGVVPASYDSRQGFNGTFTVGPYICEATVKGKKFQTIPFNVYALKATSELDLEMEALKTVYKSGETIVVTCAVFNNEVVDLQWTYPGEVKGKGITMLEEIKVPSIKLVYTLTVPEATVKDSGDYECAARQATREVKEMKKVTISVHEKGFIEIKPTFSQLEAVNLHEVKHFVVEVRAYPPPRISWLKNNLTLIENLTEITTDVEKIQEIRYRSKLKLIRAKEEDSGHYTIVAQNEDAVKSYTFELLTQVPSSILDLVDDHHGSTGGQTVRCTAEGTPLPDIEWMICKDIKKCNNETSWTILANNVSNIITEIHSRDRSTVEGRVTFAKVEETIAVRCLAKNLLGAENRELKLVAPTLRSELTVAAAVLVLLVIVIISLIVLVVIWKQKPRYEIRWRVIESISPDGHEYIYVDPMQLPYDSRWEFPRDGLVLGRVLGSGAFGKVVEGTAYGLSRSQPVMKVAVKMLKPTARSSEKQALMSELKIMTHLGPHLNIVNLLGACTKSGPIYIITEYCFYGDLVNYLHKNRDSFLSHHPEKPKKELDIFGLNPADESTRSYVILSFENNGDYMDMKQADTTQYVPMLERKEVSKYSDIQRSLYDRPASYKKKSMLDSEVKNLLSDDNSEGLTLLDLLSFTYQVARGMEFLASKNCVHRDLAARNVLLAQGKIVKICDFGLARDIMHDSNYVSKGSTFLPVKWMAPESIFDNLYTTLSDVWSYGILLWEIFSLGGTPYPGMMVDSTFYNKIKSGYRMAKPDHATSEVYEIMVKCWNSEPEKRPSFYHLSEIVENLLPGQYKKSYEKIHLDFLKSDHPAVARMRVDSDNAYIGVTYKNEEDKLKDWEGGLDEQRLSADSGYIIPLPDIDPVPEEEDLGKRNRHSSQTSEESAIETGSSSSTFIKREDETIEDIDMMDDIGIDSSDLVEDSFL
How it was run: as §1

PDPK1 = PDPK1 (Homo sapiens (Human), UniProt O15530)
How it was run: as §1

PIK3CA(H1047L) = PIK3CA(H1047L) (Homo sapiens (Human), UniProt P42336, H1047L)
How it was run: as §1

PIP5K1C = PIP5K1C (Homo sapiens (Human), UniProt O60331)
How it was run: as §1

PLK3 = PLK3 (Homo sapiens (Human), UniProt Q9H4B4)
How it was run: as §1

RIPK1 = RIPK1 (Homo sapiens (Human), UniProt Q13546)
How it was run: as §1

TTK = TTK (Homo sapiens (Human), UniProt P33981)
How it was run: as §1

WNK1 = WNK1 (Homo sapiens (Human), UniProt Q9H4A3)
How it was run: as §1

YSK1 = YSK1 (Homo sapiens (Human), UniProt O00506)
Chain of YSK1 (O00506 whole entry): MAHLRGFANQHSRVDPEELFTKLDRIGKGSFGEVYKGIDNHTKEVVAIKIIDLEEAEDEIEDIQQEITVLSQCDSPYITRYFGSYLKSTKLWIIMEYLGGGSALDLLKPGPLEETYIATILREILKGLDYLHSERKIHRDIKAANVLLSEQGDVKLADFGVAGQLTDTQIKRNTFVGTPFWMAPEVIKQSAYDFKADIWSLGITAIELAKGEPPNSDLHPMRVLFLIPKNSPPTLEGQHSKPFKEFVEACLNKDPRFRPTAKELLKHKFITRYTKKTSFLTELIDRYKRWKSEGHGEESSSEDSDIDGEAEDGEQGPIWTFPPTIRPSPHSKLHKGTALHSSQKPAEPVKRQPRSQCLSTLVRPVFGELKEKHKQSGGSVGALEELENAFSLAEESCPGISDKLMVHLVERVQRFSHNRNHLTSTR
How it was run: as §1

YSK4 = YSK4 (Homo sapiens (Human), UniProt Q56UN5)
How it was run: as §1

p38-gamma = p38-gamma (Homo sapiens (Human), UniProt P53778)
How it was run: as §1

SMILES | remaining binding at 1 µM (AAK1) | remaining binding at 1 µM (ACVR1B) | remaining binding at 1 µM (AKT3) | remaining binding at 1 µM (CAMK2A) | remaining binding at 1 µM (CAMK2G) | remaining binding at 1 µM (CDC2L1) | remaining binding at 1 µM (CDK2) | remaining binding at 1 µM (CSK) | remaining binding at 1 µM (EGFR(L858R, T790M)) | remaining binding at 1 µM (EPHA2) | remaining binding at 1 µM (EPHA5) | remaining binding at 1 µM (EPHB3) | remaining binding at 1 µM (ERBB4) | remaining binding at 1 µM (HCK) | remaining binding at 1 µM (IRAK3) | remaining binding at 1 µM (JNK3) | remaining binding at 1 µM (KIT(V559D, V654A)) | remaining binding at 1 µM (LKB1) | remaining binding at 1 µM (MAP3K3) | remaining binding at 1 µM (MAPKAPK2) | further results
CCNc1cc(Nc2ccc(C(=O)N3CCC(N4CCOCC4)CC3)cc2OC)nc2[nH]cc(C(F)(F)F)c12 [Example 57, (4-((4-(ethylamino)-3-(trifluoromethyl)-1H-pyrrolo[2,3-b]pyridin-6-yl)amino)-3-methoxyphenyl) (4-morpholinopiperidin-1-yl)methanone] | 54% | 82% | 96% | 72% | 72% | 90% | 100% | 76% | 73% | 83% | 85% | 85% | 82% | 88% | 79% | 52% | 84% | 92% | 75% | 51% | remaining binding at 1 µM (MET): 100%; remaining binding at 1 µM (MET(M1250T)): 100%; remaining binding at 1 µM (MINK): 100%; remaining binding at 1 µM (MST1R): 70%; remaining binding at 1 µM (MST2): 100%; remaining binding at 1 µM (NEK2): 94%; remaining binding at 1 µM (NLK): 84%; remaining binding at 1 µM (PAK2): 40%; remaining binding at 1 µM (PDGFRA): 100%; remaining binding at 1 µM (PDPK1): 86%; remaining binding at 1 µM (PIK3CA(H1047L)): 100%; remaining binding at 1 µM (PIP5K1C): 69%; remaining binding at 1 µM (PLK3): 98%; remaining binding at 1 µM (RIPK1): 92%; remaining binding at 1 µM (TTK): 67%; remaining binding at 1 µM (WNK1): 100%; remaining binding at 1 µM (YSK1): 73%; remaining binding at 1 µM (YSK4): 100%; remaining binding at 1 µM (p38-gamma): 77%
CCNc1cc(Nc2ccc(C(=O)N3CCC(N4CCOCC4)CC3)cc2OC)nc2[nH]cc(C#N)c12 [Example 18, 4-(ethylamino)-6-((2-methoxy-4-(4-morpholinopiperidine-1-carbonyl)phenyl)amino)-1H-pyrrolo[2,3-b]pyridine-3-carbonitrile] | 69% | 88% | 96% | 72% | 77% | 100% | 100% | 93% | 81% | 97% | 99% | 93% | 85% | 85% | 84% | 0% | 97% | 62% | 70% | 21% | remaining binding at 1 µM (MET): 100%; remaining binding at 1 µM (MET(M1250T)): 100%; remaining binding at 1 µM (MINK): 55%; remaining binding at 1 µM (MST1R): 81%; remaining binding at 1 µM (MST2): 95%; remaining binding at 1 µM (NEK2): 100%; remaining binding at 1 µM (NLK): 84%; remaining binding at 1 µM (PAK2): 82%; remaining binding at 1 µM (PDGFRA): 77%; remaining binding at 1 µM (PDPK1): 99%; remaining binding at 1 µM (PIK3CA(H1047L)): 85%; remaining binding at 1 µM (PIP5K1C): 67%; remaining binding at 1 µM (PLK3): 79%; remaining binding at 1 µM (RIPK1): 94%; remaining binding at 1 µM (TTK): 8.9%; remaining binding at 1 µM (WNK1): 93%; remaining binding at 1 µM (YSK1): 99%; remaining binding at 1 µM (YSK4): 6.7%; remaining binding at 1 µM (p38-gamma): 77%
